Reference: US20260001910A1, “PEPTIDES AND USES THEREOF” (PreveCeutical Medical Inc., priority 2021, published 2026)
Where two headings read alike, the source gives them in different places.

Key:
[1] = Source text: (§1) The MTT (3-[4.5-dimethylthiazol-2-yl]-2,5=diphenyl tetrazolium bromide) assay is based on a process undertaken by living cells, involving the conversion of MTT into formazan crystals. This assay is used routinely to measure the in vitro cytotoxic effects of drugs on cell lines or primary patient cells (Van Meerloo et al., 2011).
(§2) The glioblastoma multiforme (GBM) cell lines used were U87 and U251 cells and patient derived cells grown as oncospheres (081024 cells). Human adherent GBM cell lines U87 and U251 were cultured in RPMI medium (Life Technologies Melbourne Australia) supplemented with 5% v/v FBS, 100 U/mL penicillin and 100 μg/mL streptomycin. 081024 cells were cultured in NeuroCult™ NS-A Proliferation medium with 0.2% (v/v) hepain, 20 ng/mL EGF and 10 ng/ml FGF.
(§3) 8×10^3 U87 and 7×10^3 U251 cells per well were seeded in 96 well plates in 200 μL serum-containing RPMI medium and incubated at 37° C. with 5% CO2 for 24 hours. After one wash with serum-free medium, 100 μL serum-free medium with different concentration of peptide SEQ ID NO:1 was added to each well. After 48 hours incubation, 10 μL of 0.5 mg/mL MTT was added and incubated for 2 hours at 37° C. Formazan crystals were dissolved by 200 μL/well dimethyl sulfoxide (DMSO) and shaking for 15 minutes. The UV absorbance was read with an iMark™ microplate absorbance reader at 595 nm (Bio-Rad Laboratories). Background absorbance was subtracted and results expressed as the % viability of control (untreated cells).

[2] = remark: listed apart in the source
Source text: as §1, §2, §3

[3] = tested on: U87, U251 and 081024 cells; conditions: MTT, all three GBM cell lines
Source text: as §1, §2, §3

MMP-2 mRNA = test: Real time RT-PCR mRNA expression; type: cell-based, human
Source text: (§4) The real-time reverse transcription polymerase chain reaction (RT-PCR) uses fluorescent reporter molecules to monitor the production of amplification products during each cycle of the PCR reaction. This combines the nucleic acid amplification and detection steps into one homogeneous assay and use of appropriate chemistries and data analysis eliminates the need for Southern blotting or DNA sequencing for amplicon identification. Its simplicity, specificity and sensitivity, together with its potential for high throughput and the ongoing introduction of new chemistries, more reliable instrumentation and improved protocols, has made real-time RT-PCR the benchmark technology for the detection and/or comparison of RNA levels.′
(§5) In order to detect and quantify the expression of specific genes at mRNA level, real-time reverse transcriptase polymerase chain reaction (Real time RT-PCR) was performed. Total RNA of samples was isolated and purified using the PureLink® RNA Mini Kit (Life technologies). The concentration of total RNA was detected by NanoDrop 2000 Spectrophotometer (Thermo Scientific). The total RNA (2000 ng) was reverse transcribed using the High-Capacity cDNA Reverse Transcription Kit (Applied Biosystems™).
(§6) The primers of target genes were TaqMan™ Gene Expression Assay for human PLAU (Hs01547054_m1), MMP-2 (Hs01548727_ml), MMP-9 (Hs00957562_m1), Snail-1 (Hs00195591_m1), Snail-2 (Hs00161904_m1), N-cadherin (Hs00983056_m1) and Twist (Hs01675818_s1). Relative quantification was done by reference to 18S ribosomal RNA (18S rRNA) and analysed using the comparative critical threshold (Ct) method
(§7) The mRNA expression of MMPs was measured using qRT-PCR. This was tested three independent times; the results are shown in Tables 8, 9 and 10 for U251, U87 cells and 081024 cells respectively. Results are reported as percent of the control cells (no treatment). SEQ ID NO.

MMP-9 mRNA = test: Real time RT-PCR mRNA expression; type: cell-based, human
Source text: as §4, §5, §6, §7

uPA (PLAU) mRNA = test: Real time RT-PCR mRNA expression; type: cell-based, human
Source text: as §4, §5, §6, §7

CDH-2 (N-cadherin) mRNA = test: Real time RT-PCR mRNA expression (EMT marker); type: cell-based, human
Source text: as §4, §5, §6, §7
(§8) Epithelial-mesenchymal transition (EMT) is the process by which epithelial cells acquire a migratory (metastatic) phenotype and so EMT is associated with cancer metastasis, cancer cell stemness, chemoresistance and immune resistance. Therefore, the determination of the mRNA expression of EMT markers is a valuable tool to evaluate invasion potential of cancer cells.
(§9) The ‘Snail’ superfamily is involved in cell differentiation and survival, two processes central in cancer research. Snail-1 has a pivotal role in the regulation of epithelial-mesenchymal transition (EMT) and Snail-1 expression is associated with poor prognosis in metastatic cancer, and tumours with elevated Snail-1 expression are harder to treat. The significance of Snail-1 as a prognostic indicator, its involvement in the regulation of EMT and metastasis, and its roles in both drug and immune resistance point out that Snail-1 is an attractive target for tumour growth inhibition and a target for sensitization to cytotoxic drugs (Kaufhold et al., 2014). Twist is transcriptionally active during cell differentiation and lineage determination. During the establishment of cancer metastases by EMT, Twist acts independently of Snail to suppress E-cadherin and to upregulate N-cadherin (CDH-2) and fibronectin. Snail-2 (Slug) is another member of the SNAIL family of transcriptional activators and serves an important role in suppressing the epithelial phenotype in numerous cancer cells (Iwadate, 2016).

Snail-1 mRNA = test: Real time RT-PCR mRNA expression (EMT marker); type: cell-based, human
Source text: as §4, §5, §6, §7, §8, §9

Snail-2 mRNA = test: Real time RT-PCR mRNA expression (EMT marker); type: cell-based, human
Source text: as §4, §5, §6, §7, §8, §9

Twist mRNA = test: Real time RT-PCR mRNA expression (EMT marker); type: cell-based, human
Source text: as §4, §5, §6, §7, §8, §9

[4] = 081024 cells, baseline expression level = 1
[5] = U87 cells, baseline expression level = 1
[6] = U251 cells, relative to untreated control, 18S rRNA reference

CC(C)C[C@@H](NC(=O)[C@@H](Cc1ccccc1)NC(=O)CNC(=O)CNC(=O)[C@H](N)Cc1ccc(O)cc1)C(=O)N[C@H](CCCNC(=N)N)C(=O)N[C@H](CCCNC(=N)N)C(N)=O [SEQ ID NO. 1, tyr-Gly-Gly-phe-leu-arg-arg-NH2]
viability at 5 µM [1]: 97.9%
viability at 50 µM [1]: 101%
viability at 100 µM [1]: 95.9%
viability at 5 µM [2]: 95.8%
viability at 50 µM [2]: 99.1%
viability at 100 µM [2]: 93.4%
highest concentration which did not significantly affect cell viability [3]: 0.5 mM
MMP-2 mRNA expression (MMP-2 mRNA; [4]): 0.72
MMP-2 mRNA expression (MMP-2 mRNA; [5]): 0.74
effect on mRNA expression of MMP-2 (in words) (MMP-2 mRNA; U251, U87 and 081024 cells): did not have a statistically significant effect
MMP-2 mRNA expression (MMP-2 mRNA; [6]): 0.95
MMP-9 mRNA expression (MMP-9 mRNA; [4]): 0.54
MMP-9 mRNA expression (MMP-9 mRNA; [5]): 0.71
effect on mRNA expression of MMP-9 (in words) (MMP-9 mRNA; U251, U87 and 081024 cells): did not have a statistically significant effect
MMP-9 mRNA expression (MMP-9 mRNA; [6]): 1.10
uPA mRNA expression (uPA (PLAU) mRNA; [4]): 0.67
uPA mRNA expression (uPA (PLAU) mRNA; [5]): 1.20
effect on mRNA expression of uPA (in words) (uPA (PLAU) mRNA; U251, U87 and 081024 cells): did not have a statistically significant effect
uPA mRNA expression (uPA (PLAU) mRNA; [6]): 0.82
CDH-2 mRNA expression (CDH-2 (N-cadherin) mRNA; [4]): 0.72
CDH-2 mRNA expression (CDH-2 (N-cadherin) mRNA; [5]): 0.83
CDH-2 mRNA expression (CDH-2 (N-cadherin) mRNA; [6]): 0.88
Snail-1 mRNA expression (Snail-1 mRNA; [4]): halved the expression of Snail-1 mRNA with statistical significance
Snail-1 mRNA expression (Snail-1 mRNA; 081024 cells, baseline expression level = 1, listed as SEQ ID NO.1): 0.53
Snail-1 mRNA expression (Snail-1 mRNA; [5]): 0.65
Snail-1 mRNA expression (Snail-1 mRNA; [6]): 1.11
Snail-2 mRNA expression (Snail-2 mRNA; [4]): 0.78
Snail-2 mRNA expression (Snail-2 mRNA; [5]): 1.05
Snail-2 mRNA expression (Snail-2 mRNA; [6]): 1.06
Twist mRNA expression (Twist mRNA; [4]): 0.73
Twist mRNA expression (Twist mRNA; [5]): 0.70
Twist mRNA expression (Twist mRNA; [6]): 0.87
